BindingDB's records for doi:10.1111/j.1747-0285.2009.00881.x (University of Notre Dame, 2009)

target: 72 kDa type IV collagenase (Homo sapiens, UniProt P08253); assay: Inhibition Assay
Excerpt: Inhibition assay using matrix metalloproteinase (MMP-2).

72 kDa type IV collagenase, sequence (P08253 whole entry): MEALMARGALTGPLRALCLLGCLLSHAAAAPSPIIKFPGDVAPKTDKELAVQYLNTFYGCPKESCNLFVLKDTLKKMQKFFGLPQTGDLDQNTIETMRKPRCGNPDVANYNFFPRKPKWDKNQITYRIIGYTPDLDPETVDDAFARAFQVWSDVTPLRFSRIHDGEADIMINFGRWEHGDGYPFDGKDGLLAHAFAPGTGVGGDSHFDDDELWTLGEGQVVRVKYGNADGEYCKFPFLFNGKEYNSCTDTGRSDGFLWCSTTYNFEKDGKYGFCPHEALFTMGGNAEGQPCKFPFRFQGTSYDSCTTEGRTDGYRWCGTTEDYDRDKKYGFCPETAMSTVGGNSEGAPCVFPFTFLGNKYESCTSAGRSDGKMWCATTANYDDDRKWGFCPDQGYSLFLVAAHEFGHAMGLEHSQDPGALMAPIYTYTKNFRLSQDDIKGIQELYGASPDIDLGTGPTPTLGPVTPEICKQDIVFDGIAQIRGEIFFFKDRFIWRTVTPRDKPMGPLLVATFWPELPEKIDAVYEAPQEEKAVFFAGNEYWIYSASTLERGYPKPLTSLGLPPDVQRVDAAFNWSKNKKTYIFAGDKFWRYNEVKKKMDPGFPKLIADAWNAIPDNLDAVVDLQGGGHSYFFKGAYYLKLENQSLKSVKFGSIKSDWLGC

Compound	Ki [µM]
CC(C)(C1CS1)S(=O)(=O)c1ccc(Oc2ccccc2)cc1 (stereo not drawn) [Alpha, alpha-dimethyl derivative, 5]	> 40
O=S(=O)(/C=C/CS)c1ccc(Oc2ccccc2)cc1 [Vinylsulfone, 7]	0.00053
CC1(C)SC1CS(=O)(=O)c1ccc(Oc2ccccc2)cc1 (centres undefined) [Gama, gama-dimethyl derivative, 6]	1.4
[O-][S+](CC1CS1)c1ccc(Oc2ccccc2)cc1 (centres undefined) [Sulfoxide, 4]	2.1
